Laboratory results reported in PubChem BioAssay (NCI).
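In this assay, cells in 96-well plates receive the compound at five concentrations for 48 hours. Endpoints are linearly interpolated between the surrounding concentrations. GI50 marks 50% less growth. TGI denotes the concentration required for complete inhibition of growth.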

Legend:
Assay in all cases: growth of human tumour cells (NCI), 48 h
ACHN renal = system: ACHN renal
HCT-116 colon = system: HCT-116 colon
KM12 colon = system: KM12 colon
SNB-19 CNS = system: SNB-19 CNS
UO-31 renal = system: UO-31 renal
BT-549 breast = system: BT-549 breast
MCF7 breast = system: MCF7 breast
MDA-MB-231 breast = system: MDA-MB-231 breast
OVCAR-4 ovarian = system: OVCAR-4 ovarian
MDA-MB-435 = system: MDA-MB-435

| SMILES | TGI (ACHN renal) | TGI (HCT-116 colon) | TGI (KM12 colon) | TGI (SNB-19 CNS) | TGI (UO-31 renal) | GI50 (ACHN renal) | GI50 (BT-549 breast) | TGI (BT-549 breast) | GI50 (HCT-116 colon) | GI50 (KM12 colon) | GI50 (MCF7 breast) | TGI (MCF7 breast) | GI50 (MDA-MB-231 breast) | TGI (MDA-MB-231 breast) | GI50 (OVCAR-4 ovarian) | TGI (OVCAR-4 ovarian) | GI50 (SNB-19 CNS) | GI50 (UO-31 renal) | GI50 (MDA-MB-435) | TGI (MDA-MB-435) |
| --- | --- | --- | --- | --- | --- | --- | --- | --- | --- | --- | --- | --- | --- | --- | --- | --- | --- | --- | --- | --- |
| CCCCC1(C(NC(=O)c2ccccc2Cl)c2ccncc2)C(=O)N(c2ccccc2)N(c2ccccc2)C1=O (configuration not stated) | > 100 µM | > 100 µM | > 100 µM | > 100 µM | > 100 µM | – | – | – | – | – | – | – | – | – | – | – | – | – | – | – |
| COCC(C(=O)OC1C/C=C/C=C/C(=O)OC(C(C)C(O)C(C)CCC(OC(=O)C(C)N(C)C)C(C)C(OC(C)=O)C(C)/C=C/N(C)C=O)C/C=C/C(OC)CC(C)C/C=C(\C)C(OC)CCC(C)C(O)C1C)N(C)C (configuration not stated) | > 0.393 µM | 0.00687 µM | < 0.0001 µM | 0.111 µM | 0.169 µM | 0.000173 µM | 0.00677 µM | 0.0915 µM | < 0.0001 µM | < 0.0001 µM | < 0.0001 µM | 0.06 µM | < 0.0001 µM | 0.00136 µM | 0.00537 µM | > 0.281 µM | < 0.0001 µM | 0.00104 µM | – | – |
| Nc1ccccc1C#Cc1ccccc1C#Cc1cccs1 | 39.4 µM | 25.4 µM | 27.7 µM | > 100 µM | 47.3 µM | 18.7 µM | 15.9 µM | 32.1 µM | 12.8 µM | 10.3 µM | – | – | 11.8 µM | 28.2 µM | 31 µM | > 100 µM | 29.9 µM | 19.1 µM | 4.03 µM | 14.3 µM |
| CCCCCC[C@H]1C(=O)O[C@H](C)[C@H](NC(=O)c2cccc(NC=O)c2OC)C(=O)O[C@@H](C)[C@@H]1OC(=O)CCC (tested in a mixture with another compound) | 23.1 µM | 24.3 µM | 31.4 µM | – | 29.3 µM | 10.1 µM | 11.9 µM | 35.5 µM | 9.89 µM | 9.77 µM | 33.4 µM | > 100 µM | 13.5 µM | 34.2 µM | 12.7 µM | 29 µM | – | 13.2 µM | 9.6 µM | 27.9 µM |
| Cc1ccc(OC(=O)N2C/C(=C\c3ccccc3)C(=O)/C(=C/c3ccccc3)C2)cc1 | 80.9 µM | 5.28 µM | 45.7 µM | > 100 µM | 85 µM | – | – | 88 µM | – | – | – | 56 µM | – | 70.2 µM | – | 32.2 µM | – | – | – | – |
| O=C1C(=O)C2(CC1S(=O)(=O)c1ccccc1)c1ccccc1-c1ccccc12 (configuration not stated) | 92 µM | 31.9 µM | 33.9 µM | 40.4 µM | 47 µM | – | – | – | – | – | – | – | – | – | – | > 100 µM | – | – | – | – |
| Cc1ccc(S(=O)C(C)C(Cl)c2ccccc2)cc1 (configuration not stated) | > 100 µM | > 100 µM | – | – | > 100 µM | – | – | – | – | – | – | – | – | – | – | > 100 µM | – | – | – | – |
| COc1ccc(/C=N/NS(=O)(=O)c2ccccc2)cc1 | > 100 µM | > 100 µM | > 100 µM | – | > 100 µM | – | – | – | – | – | – | – | – | – | – | > 100 µM | – | – | – | – |
| COc1cc2c3c(n(CCCNCCCNCCCN)c(=O)c2cc1OC)-c1cc2c(cc1C3=O)OCO2 | > 100 µM | > 100 µM | > 100 µM | > 100 µM | > 100 µM | 91.6 µM | – | – | 43 µM | > 100 µM | > 100 µM | > 100 µM | > 100 µM | > 100 µM | 6.63 µM | > 100 µM | > 100 µM | > 100 µM | 68.4 µM | > 100 µM |
| COc1ccc(Br)c(C(=O)N2CCc3ccccc32)c1N | > 100 µM | > 100 µM | > 100 µM | > 100 µM | > 100 µM | – | – | – | – | – | – | – | – | – | – | > 100 µM | – | – | – | – |
